Experimental data: patent publication US6399618B1, “Compositions and methods for modulating sexual activity” (priority 1997, dated 2002)
Structures can show the parent of a compound that is named as a salt. Marks after values point to notes of the source that are not given here.

How the values were obtained:
[1] = test system: male primates; test: Sexual behavior in male primates, paired observation study (penile response grades); type: in vivo, macaca fascilaris; settings: 1.0 mg/kg ip; N=3; observed 1 hour
Description: Monkeys used for testing were separated from the cluster of cages and treated and observed in pairs in the middle of the housing environment.
N=3 for all drug-treated animals, while N=18 for saline-treated animals. […] Data are expressed as the number of test animals having a particular grade of penile response. Penile responses were scored every 10 sec for 1 hour according to the following scale:
Grade 0=glans are hidden from the view
Grade 1=glans are clearly visible
Grade 2=penis is extended
Grade 4=erection with masturbation
Grade 5=erection with masturbation and ejaculation

[2] = test system: noradrenaline pre-contracted rabbit CC; test: Direct action on penile erection: tone of corpus cavernosal muscle strips in organ bath; settings: concentration from 10^-8 M to 10^-4 M; n=6
Description: Corpus cavernosal (CC) muscle strips were prepared from penises obtained from rabbit (n=6). CC strips were dissected free from tunica albungia and mounted in 10 or 25 mL organ baths containing Tyrode solution saturated with 95%O2/5% CO2 mixture.

[3] = test system: male rats; test: Antagonism of XVIb-induced erections by comparative compounds in rats; type: in vivo, SD rats; settings: for antagonism of the erectile promoting actions of XVIb: injected 30 minutes prior to XVIb 16 mg/kg ip, pindolol 0.1-3, scopolamine 0.1-3.0, haloperidol 0.01-0.3, ketanserin 0.1-3.0 mg/kg
Description: Male SD rats (300-500 g; n=6 per group) were injected with (±)-Pindolol, scopolamine, haloperidol, or ketanserin, 30 minutes prior to injection of a single dose of XVIb (16 mg/kg, ip) or saline.

[4] = test system: male rats; test: Rat sexual behavior, proerectile actions of XVIIa and XVIIb (ip); type: in vivo, SD rats; settings: 16 mg/kg ip
Description: Male SD rats (250-300 g) were injected with XVIIa (16 mg/kg, ip), XVIIb (16 mg/kg, ip) or distilled water (ip), and observed 5 minutes later for the number of erections (as characterized by penile grooming) and the time to the first erection, over a 60 minute observation period. Six rats at a time, housed singly, were observed by two observers. Treatments were administered in a standard randomized and double blinded manner.

[5] = test system: male rats; test: Rat sexual behavior, proerectile actions (injected); type: in vivo, SD rats; settings: for Erections/60 minutes / Latency to the first erection: mean±sem; for Erections/60 minutes / Latency to the first erection / Responders: n=10
Description: Male SD rats (350-450 g; n=10 per group) were injected with increasing doses of XVIb (4.0-64.0 mg/kg), XVIa (1.0, 4.0 or 16 mg/kg) or saline and observed 5 minutes later, in groups of 5, for the number of erections and the time to the first erection, over a 60 minutes observation period.
In Table 2, the effects of XVIb, XVIa and saline on erection in male rats is indicated. Data is expressed as the mean±sem for 10 test animals. Data marked with an asterisk “*” indicate significant difference from saline (α<0.05) as determined by ANOVA with Tukey test for multiple comparisons.

## (±)-trans-N-[2-(1-(4-methyl)piperazinyl)cyclohexyl]naphthalene-2-acetamide monohydrochloride [XVb]
[1]
  number of test animals having Grade 0 penile response (glans are hidden from the view): 1
  number of test animals having Grade 1 penile response (glans are clearly visible): 2
  number of test animals having Grade 2 penile response (penis is extended): 2
  number of test animals having Grade 3 penile response (full erection): 1
  number of test animals having Grade 4 penile response (erection with masturbation): 0
  number of test animals having Grade 5 penile response (erection with masturbation and ejaculation): 0

## O=c1n(CCCN2CCN(c3cccc(Cl)c3)CC2)nc2ccccn12 [Trazodone]
[2]
  effect on tone of noradrenaline pre-contracted rabbit CC: reduced tone of rabbit CC in a dose dependent manner

## CN1[C@@H]2C[C@@H](OC(=O)[C@H](CO)c3ccccc3)C[C@H]1[C@@H]1O[C@@H]12 [scopolamine]
[3]
  antagonism of the erectile promoting actions of XVIb: antagonized the erectile promoting actions
[3]; scopolamine, XVIb 16 mg/kg ip, n=6
  erections after scopolamine pretreatment plus XVIb: 1.2±0.3 erections/60 minutes

## CN1CCN(C(=O)Cc2ccc(Cl)c(Cl)c2)CC1 [XVIIa, 1-Methyl-4-(2-(3,4-Dichlorophenyl)acetyl)piperazine Monohydrochloride]
[4]
  Responders: 67%
  latency to first erection: 6 min
  maximum number of erections/rat: 3 h⁻¹

## (±)-trans-N-methyl-[2-(1-(4-methyl)piperazinyl)cyclohexyl]naphthalene-1-acetamide monohydrochloride [Compound XVa]
[1]
  number of test animals having Grade 0 penile response (glans are hidden from the view): 1
  number of test animals having Grade 1 penile response (glans are clearly visible): 2
  number of test animals having Grade 2 penile response (penis is extended): 2
  number of test animals having Grade 3 penile response (full erection): 2
  number of test animals having Grade 4 penile response (erection with masturbation): 2
  number of test animals having Grade 5 penile response (erection with masturbation and ejaculation): 0

## COc1ccc(CC(=O)N2CCN(C)CC2)cc1OC [XVIIb, 1-Methyl-4-(3,4-Dimethoxyacetyl)Piperazine Monohydrochloride]
[4]
  Responders: 100%
  latency to first erection: 16 min
  maximum number of erections/rat: 5 h⁻¹

## (±)-trans-[2-(1-(4-methyl)piperazinyl)cyclohexyl]naphthalene-1-acetate monohydrochloride [XVc]
[1]
  number of test animals having Grade 0 penile response (glans are hidden from the view): 1
  number of test animals having Grade 1 penile response (glans are clearly visible): 2
  number of test animals having Grade 2 penile response (penis is extended): 2
  number of test animals having Grade 3 penile response (full erection): 2
  number of test animals having Grade 4 penile response (erection with masturbation): 2
  number of test animals having Grade 5 penile response (erection with masturbation and ejaculation): 1

## CN1CCN(C(=O)Cc2cccc3ccccc23)CC1 [XVIa, 1-Methyl-4(1-naphthaleneacetyl)piperazine monohydrochloride]
[5]; 1.0 mg/kg
  Erections/60 minutes: 1.2 ± 0.3
  Latency to the first erection: 1929 ± 432 s
  Responders: 100%
[5]; 4.0 mg/kg
  Erections/60 minutes: 3.0 ± 0.6
  Latency to the first erection: 1749 ± 349 s
  Responders: 100%
[5]; 16.0 mg/kg
  Erections/60 minutes: 5.4 ± 0.7* #
  Latency to the first erection: 506 ± 105* sec
  Responders: 100%
[5]; 60 minutes observation
  effect on penile erections (in words): increased penile erections, although to a lesser degree than XVIb
[1]
  number of test animals having Grade 0 penile response (glans are hidden from the view): 1
  number of test animals having Grade 1 penile response (glans are clearly visible): 2
  number of test animals having Grade 2 penile response (penis is extended): 2
  number of test animals having Grade 3 penile response (full erection): 1
  number of test animals having Grade 4 penile response (erection with masturbation): 1
  number of test animals having Grade 5 penile response (erection with masturbation and ejaculation): 0

## CC(C)NCC(O)COc1cccc2[nH]ccc12 (racemic) [(±)-Pindolol]
[3]; highest dose tested of (±)-pindolol, XVIb 16 mg/kg ip, n=6
  erections after (±)-pindolol pretreatment plus XVIb: 2.0±0.4 erections/60 minutes
[3]
  antagonism of the erectile promoting actions of XVIb: antagonized the erectile promoting actions

## 1-methyl-4-trifluoromethylphenylpiperazine
[2]
  effect on tone of noradrenaline pre-contracted rabbit CC: failed to reduce tone
